Where two headings read alike, the source gives them in different places.
How the values were obtained:
plasma protein binding = format: in vitro ADME; settings: read-out: plasma protein binding, free fraction
human mGluR4 = human mGluR4 (Homo sapiens, UniProt Q14833); assay: calcium assay for agonistic and/or positive allosteric modulator activity on human mGluR4; format: cell-based
Description: The compound of formula (I) according to the invention (i.e., PXT002331) was tested for its agonistic and/or positive allosteric modulator activity on human mGluR4 using the calcium assay described in Example 171 of WO 2011/051478.

[1] = in vivo pharmacokinetics in male Sprague-Dawley rats, plasma and brain; settings: rat; for Kp at 1.5 h: brain, T = 1.5 h, read-out: Brain/Plasma ratio (T = 1.5 h); for Kp at 1.5 h / AUC(0-inf): po
Description: PXT002331 and PXT001858 were administered per os (p.o.) at 10 mg/kg to male Sprague-Dawley rats. Volume of administration was 10 ml/kg. In parallel, PXT002331 was also administered intravenously (i.v.) at 1 mg/kg, with a volume of administration of 2 ml/kg. Blood samples (200 μl) were collected at time ranging from 15 minutes to 24 hours for the p.o. administration and from 5 minutes to 24 hours for the i.v. administration in ice-cold tubes containing 0.2% K2EDTA. Tubes were centrifuged at 10,000 rpm for 5 minutes at 4° C. The plasma (supernatant) was separated in another tube and stored at −80° C. until analysis. Two groups of 3 animals were used for each route of administration: in one group, blood samples were collected to determine the kinetics of plasma exposure over a 24-hour period, and in the second group, blood and brain were collected at one terminal time point (0.5, 1.0, 1.5, 2.0, 4.0 hours) to determine the kinetics of brain exposure and brain/plasma ratio.
The respective parent compound (free base) was analysed in plasma samples and in brain homogenate using a LC-MS/MS method. Concentrations are expressed in ng/ml of plasma or in ng/g of brain tissue.
(§1) Despite their similar oral absorption, PXT002331 has a higher brain/plasma ratio (6.5 versus 2.0 at T=1.5 h; see FIG. 4) leading to a 3-fold improvement in the brain AUC when compared to PXT001858. A posteriori, one potential hypothesis might rely on the difference of phase II conjugation in the intestine and liver during oral absorption. […] Nonetheless, this difference observed in vitro cannot by itself explain the unexpected advantageous PK results obtained with PXT002331. The results obtained in these experiments are furthermore summarized in Tables 1 to 3 below and in FIGS. 1 to 4.

solubility in water = format: physicochemical; settings: as hydrochloride salt
[2] = phase I metabolic stability, CL (r); format: in vitro ADME; settings: rat
Description: (§2) The in vitro ADME profile of PXT002331 was also very similar with reference to phase I metabolic stability: CL (h/r): 55/101 μl/min/mg protein and intestinal absorption: CaCo-2 (A-B, pgp): 4.11.0.10-6 cm/s, no efflux.

[3] = phase I metabolic stability, CL (h); format: in vitro ADME; settings: human
Description: as §2

[4] = system: MPTP macaque model of Parkinson's disease; assay: MPTP macaque model of Parkinson's disease; format: in vivo, Macaca fascicularis
Description: FIGS. 5A-F: Evaluation of the anti-parkinsonian efficacy of PXT002331 in the 1-methyl-4-phenyl-1,2,3,6-tetrahydropyridine (MPTP) macaque model of Parkinson's disease (see Example 3). (A) PXT002331 as a stand-alone treatment; oral administration twice a day during 4 days, assessment of parkinsonian scores at day 4; data are mean+s.e.m. over 2 hours observation (n=7 per group; 1 of the 8 monkeys initially used was excluded); “Veh”=vehicle; “LD opt”=L-dopa optimal dose”; *=P<0.05 vs Veh; ***=P<0.001 vs Veh; statistical analysis: Friedman followed by Dunn's. (B) Combined treatment using PXT002331 (25 mg/kg)+low dose of L-dopa (4-9 mg/kg)−parkinsonism time course; oral administration twice a day during 4 days, assessment at day #4; L-dopa optimal dose (“LDopt”): >20 mg/kg; L-dopa suboptimal dose (“LDso”): 4-9 mg/kg; combined administration of L-dopa (suboptimal dose) and PXT002331: twice a day/4 days. […] (D) Combined treatment using PXT002331+low dose of L-dopa−dose-response evaluation for different doses of PXT002331; assessment of parkinsonian scores at day 4; “Veh”=vehicle; “low LD”=low dose of L-dopa; “LD opt”=optimal dose of L-dopa; *=P<0.05 vs low LD; statistical analysis: non-parametric one-way repeated, measures ANOVA (Friedman's test), followed by Dunn's multiple comparison; N=7. (E) Computerized locomotor activity in early-stage PD monkey model for PXT002331 in combination with L-dopa (low dose or optimal dose) upon oral administration; *=P<0.05 vs vehicle; **=P<0.01 vs vehicle; ***=P<0.001 vs vehicle; statistical analysis: Friedman followed by Dunnett's; N=5 (6 monkeys/1 excluded). (F) Combined treatment using PXT002331+optimal dose of L-dopa−disability score and dyskinesia score. The anti-parkinsonian efficacy of the compound of formula (I) according to the present invention (i.e., PXT002331) was evaluated in the 1-methyl-4-phenyl-1,2,3,6-tetrahydropyridine (MPTP) macaque model of Parkinson's disease (using macaques of the species Macaca fascicularis), which reproduces most of the clinical and pathological hallmarks of Parkinson's disease and is considered a “gold standard” (see Porras G et al., Cold Spring Harb Perspect Med., 2(3):a009308, 2012 and references cited therein for a general description of the MPTP model). […] In this experiment, PXT002331 was orally administered twice a day during a period of 4 days, and the parkinsonian score was assessed at day 4 over 2 hours of observation (data are mean values+standard error of the mean (s.e.m.); n=7 monkeys per group). The anti-parkinsonian efficacy of PXT002331 (25 mg/kg) was further evaluated in combination with low (suboptimal) doses of L-dopa (levodopa; 4-9 mg/kg) (see FIGS. 5B and 5C). Doses were orally administered twice a day during 4 days, and assessment of parkinsonian scores took place at day 4 (between 1 and 2 h after L-dopa administration, i.e., between 2 and 3 h after PXT002331 administration). […] The results of a dose-response evaluation of the combination of PXT002331 (at doses from 2 mg/kg to 100 mg/kg) with L-dopa (low dose) are shown in FIG. 5D (the assessment of parkinsonian scores took place at day 4). […] In this experiment, each monkey was equipped with a detector of movements and signals were collected with 24 light beams and a video track recorder in order to descriminate all types of movements. The locomotor activity was measured during 1 hour.

[5] = system: UGT (UDP-Glucuronosyl transferase); assay: in vitro glucuronidation in rat liver microsomes; format: in vitro ADME; settings: in vitro in the presence of UGT
Description: as §1

CaCo-2 = assay: intestinal absorption CaCo-2 (A-B, pgp); format: in vitro ADME
Description: as §2

[6] = male, Sprague-Dawley, 10 mg/kg p.o.
[7] = male, Sprague-Dawley, plasma, 10 mg/kg p.o.

human mGluR4, sequence (Q14833 33-912): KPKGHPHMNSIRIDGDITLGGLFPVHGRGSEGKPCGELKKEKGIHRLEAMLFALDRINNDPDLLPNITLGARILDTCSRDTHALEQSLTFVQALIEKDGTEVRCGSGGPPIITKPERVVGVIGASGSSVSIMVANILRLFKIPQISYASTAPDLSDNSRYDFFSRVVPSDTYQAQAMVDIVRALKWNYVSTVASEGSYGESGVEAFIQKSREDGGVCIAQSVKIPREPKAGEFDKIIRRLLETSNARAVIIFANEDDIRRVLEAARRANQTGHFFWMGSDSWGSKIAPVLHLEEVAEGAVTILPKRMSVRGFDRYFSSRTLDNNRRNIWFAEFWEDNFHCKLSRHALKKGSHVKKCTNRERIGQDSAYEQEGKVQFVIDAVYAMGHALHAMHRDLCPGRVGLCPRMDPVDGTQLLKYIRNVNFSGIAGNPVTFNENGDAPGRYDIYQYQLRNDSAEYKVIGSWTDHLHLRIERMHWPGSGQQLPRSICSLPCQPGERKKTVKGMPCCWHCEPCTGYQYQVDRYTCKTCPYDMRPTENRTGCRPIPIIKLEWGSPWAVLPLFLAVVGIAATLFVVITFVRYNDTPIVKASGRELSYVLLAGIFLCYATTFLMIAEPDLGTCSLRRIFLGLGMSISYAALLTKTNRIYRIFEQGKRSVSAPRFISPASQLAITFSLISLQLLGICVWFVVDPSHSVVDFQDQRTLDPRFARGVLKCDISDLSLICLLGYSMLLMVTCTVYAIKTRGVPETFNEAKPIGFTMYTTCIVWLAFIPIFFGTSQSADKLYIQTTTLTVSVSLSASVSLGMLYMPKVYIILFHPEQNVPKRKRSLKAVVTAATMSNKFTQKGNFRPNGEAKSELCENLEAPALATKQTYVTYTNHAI

Molecule `O/N=c1\cc(-c2cc3sccc3cn2)oc2ccc(OCCN3CCOCC3)cc12` [PXT001858, reference compound] has a fraction unbound (plasma protein binding) of less than 0.01, an EC50 (human mGluR4; read-out: pEC50 on human mGluR4 (converted)) of 36.3 nM and a Kp at 1.5 h [1, 6] of 2. The AUC(0-inf) [1, 7] was 394 ng·h/mL, the “Brain AUC inf” value ([1]; 10 mg/kg p.o.) was 838 ng·h/g and the “Cmax (Brain)” value ([1]; 10 mg/kg p.o.) was 521 ng/G tissue. It also gave a solubility (solubility in water) greater than 10000 µg/mL.

`ON=c1cc(-c2cc3sccc3cn2)oc2ccc(CCCN3CCOCC3)cc12` [PXT002331, 6-(3-morpholin-4-yl-propyl)-2-(thieno[3,2-c]pyridin-6-yl)-4H-chromen-4-one oxime] showed a fraction unbound (plasma protein binding) of less than 0.01, a microsomal CLint [2] of 101 µL/min/mg and a microsomal CLint [3] of 55 µL/min/mg. For the same molecule, the EC50 (human mGluR4; read-out: EC50 corresponding to pEC50 (converted)) was roughly 76 nM, the Kp at 1.5 h [1, 6] was 6.5 and the bioavailability ([1]; male, Sprague-Dawley, plasma, oral, 10 mg/kg p.o. vs 1 mg/kg i.v.) was 39%. The AUC(0-inf) [1, 7] was 432 ng·h/mL, the “Brain AUC inf” value ([1]; 10 mg/kg p.o.) was 2713 ng·h/g and the “Cmax (Brain)” value ([1]; 10 mg/kg p.o.) was 818 ng/G tissue. For the same molecule, the “improvement in brain AUC compared to PXT001858” value ([1]; 10 mg/kg p.o.) was 3 fold, the “plasma Cmax relative to PXT001858” value ([1]; 10 mg/kg p.o.) was 0.7 fold and the “plasma exposure AUC relative to PXT001858” value ([1]; 10 mg/kg p.o.) was 1.1 fold. For the same molecule, the “parkinsonian score, combined with suboptimal dose of L-dopa vs L-dopa (suboptimal dose) alone” value ([4]; 25 mg/kg p.o. + L-dopa 4-9 mg/kg, twice a day 4 days, day 4) was “considerable improvement in parkinsonian score”, the “locomotor activity in combination with low or optimal dose of L-dopa” value ([4]; 25 mg/kg p.o., early stage PD monkey model, measured during 1 hour) was “significant improvement in locomotor activity” and the “induction of dyskinesia in combination with L-dopa (optimal dose)” value ([4]; 25 to 100 mg/kg) was “without inducing dyskinesia”. For the same molecule, the “disability score in combination with L-dopa (optimal dose)” value ([4]; increasing doses, 25 to 100 mg/kg) was “improvement in the disability score”, the “anti-parkinsonian activity (parkinsonian score), stand-alone treatment” value ([4]; p.o. twice a day for 4 days, score at day 4 over 2 h) was “potent anti-parkinsonian activity” and the “level of glucuronidation compared to PXT001858” value [5] was “much lower level of glucuronidation”. For the same molecule, the “CaCo-2 efflux (pgp)” value (CaCo-2) was “no efflux” and the solubility (solubility in water) was greater than 10000 µg/mL.
